# Data from ChEMBL document CHEMBL5724558, “Image-based profiling of drug vulnerabilities in CRC organoids” (2024).
# Several values for one entry are separate records, joined by “and”; a condition that tells them apart may be missing. Identical values can stand only once.
# Columns and labels:
# Assay type in all cases: functional, Homo sapiens
# Set-up in all cases: dose or concentration left out as unconfirmed
# Colon cancer organoid [1] = test: (§1) Image-based profiling of donated chemical probes and chemogenomic kinase set in O21 CRC organoid. Image analysis is performed on the sum area metric, and the data were normalized to the DMSO control. After imaging the organoid viability is measured using the OneGloEX Luciferase Assay System. The normalized viability data and sum area are reported.
# Colon cancer organoid [2] = test: as §1, with “O06” for “O21”
# Colon cancer organoid [3] = test: as §1, with “O09” for “O21”
SMILES,Cell Viability (Colon cancer organoid [1]; Replication number 1),Cell Viability (Colon cancer organoid [1]; Replication number 2),Cell Viability (Colon cancer organoid [2]; Replication number 1),Cell Viability (Colon cancer organoid [2]; Replication number 2),Cell Viability (Colon cancer organoid [3]; Replication number 1),Cell Viability (Colon cancer organoid [3]; Replication number 2)
O=C(NNS(=O)(=O)c1ccccc1F)c1cc(F)cc(-c2ccccn2)c1 [WM-1119],82.8466% and 99.3088%,81.4128% and 90.2447%,59.5797% and 94.7368%,61.7919% and 84.5747%,133.421% and 96.9739%,39.4001% and 91.3957%
Cc1cc(C)cc([C@H]2c3cc(C)ccc3NC(=O)CN2C(=O)c2ccc(Br)s2)c1,126.442% and 119.334%,102.791% and 105.788%,159.149% and 112.832%,176.911% and 106.346%,143.943% and 101.546%,157.398% and 102.629%
CN(C)C(=O)c1ccc(-c2cc(C(=O)N(C)C3CCCC3)no2)cc1O,136.03% and 124.037%,110.351% and 113.842%,136.959% and 113.074%,141.385% and 104.673%,101.196% and 104.096%,94.5921% and 98.6379%
COc1cc(N(C)c2ccnc3ccc(C(F)(F)F)cc23)cc(OC)c1OC,98.7422% and 93.5085%,96.4741% and 84.441%,100.25% and 97.181%,103.599% and 93.0279%,149.162% and 94.0382%,152.627% and 99.9775%
CCc1ccccc1C(=O)Nc1n[nH]c2c(C)c(F)c(C3C(C#N)=C(C)N(C)C(C)=C3C#N)cc12 [BAY-3827],104.538% and 100.129%,99.5085% and 100.51%,111.052% and 125.293%,118.254% and 98.7859%,62.8379% and 77.8869%,39.4727% and 62.2125%
CC1=C(C#N)C(c2ccc3c(c2)c(NC(=O)c2ccccc2C)nn3C)C(C#N)=C(C)N1 [BAY-974],90.5008% and 96.0543%,89.8417% and 122.959%,84.6822% and 93.2084%,111.085% and 112.763%,82.726% and 84.3377%,101.367% and 119.752%
CN1CCN(c2cnc3c(C4CCN(C(=O)c5ccc(OC(F)(F)F)cc5N)CC4)ncnc3c2)CC1 [BAY-885],131.298% and 119.498%,99.2561% and 98.9123%,84.7491% and 99.8381%,93.9717% and 91.062%,40.0205% and 84.5942%,66.5359% and 88.2236%
CC(C)N(CCCNC(=O)Nc1ccc(C(C)(C)C)cc1)C[C@H]1O[C@@H](n2cc(Br)c3c(N)ncnc32)[C@H](O)[C@@H]1O,110.58% and 96.4076%,91.3203% and 86.9928%,99.7362% and 93.745%,121.159% and 96.0701%,88.0955% and 91.1128%,116.782% and 110.611%
Cc1cccc(-c2cnc3occ(-c4ccc(C(=O)O)c(C5CCCC5)c4)c3c2)c1,122.241% and 115.611%,124.793% and 91.2416%,91.6718% and 109.086%,100.62% and 106.871%,143.367% and 90.8211%,122.111% and 97.0079%
Clc1cc2c(NC3CCCC3)nnc(-c3ccncc3)c2cc1Cl,113.128% and 118.158%,77.3442% and 110.621%,62.2011% and 99.302%,123.043% and 92.9634%,139.675% and 109.428%,148.163% and 121.159%
CCC(=N\O)/C(C)=C/c1ccc(F)c(C)c1 [A-226],109.207% and 89.6507%,103.65% and 86.2245%,97.0228% and 105.855%,79.4149% and 80.7818%,100.912% and 93.6554%,132.086% and 110.405%
Cl.Cl.c1ccc([C@@H]2C[C@H]2NC2CCNCC2)cc1,139.321% and 134.03%,128.492% and 116.527%,175.971% and 140.859%,170.528% and 119.251%,165.336% and 102.473%,183.388% and 100.348%
C[C@H](NC(=O)c1cnc2n1[C@](C)(Cc1ccc(C#N)cc1)C(=O)N2c1cc(Cl)c(F)c(Cl)c1)C(=O)NC1(c2ccccn2)CC1 [BI 1950],97.6765% and 100.712%,88.7319% and 89.7959%,114.343% and 119.672%,141.649% and 119.396%,132.005% and 114.441%,125.066% and 107.777%
CNc1cc(Oc2cc(C(=O)Nc3cc(N4CCN(C)CC4)cc(C(F)(F)F)c3)ccc2C)ncn1,91.6844% and 105.366%,86.288% and 119.755%,159.785% and 126.415%,134.323% and 110.437%,67.5725% and 54.8543%,89.2328% and 78.5558%
CC1=C(C#N)C(c2ccc3[nH]nc(C)c3c2)C(C#N)=C(C)N1 [BAY-474],98.4176% and 90.2329%,78.5633% and 94.3878%,114.031% and 109.602%,118.528% and 111.578%,97.0801% and 99.3894%,77.9563% and 84.1183%
COc1cc(-c2cn(C)c(=O)c3cnccc23)c(OC)cc1CN(C)C,113.788% and 114.043%,122.408% and 119.749%,102.497% and 103.651%,129.558% and 87.7058%,64.3431% and 76.9706%,65.7343% and 74.6912%
Cn1c(C2(NC(=O)c3ccc4c(C5CCCC5)c(-c5ncc(Br)cn5)n(C)c4c3)CCC2)nc2ccc(/C=C/C(=O)O)cc21 [DELEOBUVIR],112.195% and 113.344%,113.774% and 112.777%,72.8568% and 101.611%,116.691% and 122.099%,177.935% and 120.27%,86.2792% and 92.0585%
O=C(O)c1ccc(-c2c[nH]c3ncc(-c4ccccc4)cc23)cc1C1CCCC1 [GSK-650394],104.512% and 92.3751%,123.401% and 109.943%,96.4947% and 115.731%,112.452% and 109.917%,86.6407% and 76.4679%,121.957% and 104.927%
Cc1c(NC(=O)c2ccc(C(C)(C)C)cc2)cccc1-c1cn(C)c(=O)c(Nc2ccc(C(=O)N3CCOCC3)cc2)n1,86.5232% and 101.491%,97.7388% and 99.4222%,119.85% and 118.543%,84.412% and 97.7895%,87.7094% and 99.5999%,109.316% and 107.058%
O=C(CNCc1cc2ccccc2[nH]1)N[C@H]1CC[C@@H](c2nc3ccccc3[nH]2)CC1,73.7634% and 95.331%,89.7869% and 102.483%,105.609% and 101.043%,76.5637% and 75.4756%,116.461% and 89.5122%,85.4342% and 106.091%
CCS(=O)(=O)c1cc2cc(C[C@](O)(CC(C)(C)c3ccc(F)cc3C(N)=O)C(F)(F)F)[nH]c2cn1 [BI 653048],95.8907% and 94.89%,87.1647% and 83.1633%,90.5623% and 97.4239%,82.9692% and 113.237%,139.667% and 102.973%,122.797% and 92.0044%
CC(C)Oc1ccc(-c2c[nH]cc2CN(C)CCO)cc1,96.8467% and 122.861%,101.748% and 92.8998%,142.087% and 115.973%,131.014% and 107.302%,133.832% and 103.4%,212.72% and 118.594%
O=C(O)[C@@H]1[C@@H](Cn2nnc3ccccc3c2=O)CC[C@H]1C(=O)c1ccc(OCCC2CCOCC2)cc1 [BAY-694],110.342% and 94.3079%,96.7199% and 85.7143%,110.156% and 94.3794%,134.213% and 84.5721%,120.527% and 70.2416%,178.043% and 104.564%
O=C1c2ccc(Nc3ccc(F)cc3F)cc2CCc2ccc(OC[C@H](O)CO)cc21 [Skepinone-L],124.274% and 139.142%,112.785% and 100.442%,90.1352% and 107.854%,111.788% and 116.531%,97.726% and 98.0993%,77.28% and 97.9381%
CCCCNNC(=O)c1ccc(Br)cc1,97.5198% and 109.34%,111.608% and 95.0477%,141.347% and 94.2282%,136.66% and 100.85%,73.4793% and 89.7218%,77.458% and 82.3883%
COc1cc(C)c(Sc2cnc(NC(=O)c3ccc(CNC(C)C(C)(C)C)cc3)s2)cc1C(=O)N1CCN(C(C)=O)CC1 (configuration not stated),74.3447% and 68.0139%,84.4374% and 89.8165%,76.6912% and 109.056%,80.9572% and 86.581%,101.639% and 97.9897%,78.5606% and 100.962%
CCOc1ccc(S(=O)(=O)Nc2ccc(Cl)cc2C#Cc2cnc(C(=O)[O-])cc2OC)c2ncccc12.[K+],102.626% and 139.142%,112.375% and 81.0673%,90.5182% and 89.6356%,107.269% and 105.718%,79.533% and 90.784%,112.265% and 100.119%
